Experimental data as given in ChEMBL document CHEMBL1201862, “PubChem BioAssay data set” (2004).
Several values for one entry are separate records, joined by “and”; a condition that tells them apart may be missing. Equal values may be shown once.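 96-well plates; 48 h exposure; 5 concentrations. Endpoints by linear interpolation between flanking doses. Not reached: highest tested concentration assigned. GI50 = concentration required for 50% inhibition of growth.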 Activity calls are given as the source filed them. Rule as the data show it: active = GI50 up to about 1.1 µM and inactive = higher.

Columns and labels:
Experiment in all cases: inhibition of tumour cell growth, NCI panel, 48 h
ACHN = system: ACHN
HCT-116 = system: HCT-116
HOP-62 = system: HOP-62
HOP-92 = system: HOP-92
KM12 = system: KM12
MDA-N = system: MDA-N
MOLT-4 = system: MOLT-4
Malme-3M = system: Malme-3M
NCI-H23 = system: NCI-H23
NCI-H522 = system: NCI-H522
NCI/ADR-RES = system: NCI/ADR-RES
PC-3 = system: PC-3
RXF 393 = system: RXF 393
SK-MEL-5 = system: SK-MEL-5
SN12C = system: SN12C
U-251 = system: U-251
UACC-257 = system: UACC-257
UACC-62 = system: UACC-62
LOX IMVI = system: LOX IMVI

| SMILES | GI50 (ACHN) | GI50 (HCT-116) | GI50 (HOP-62) | GI50 (HOP-92) | GI50 (KM12) | GI50 (MDA-N) | GI50 (MOLT-4) | GI50 (Malme-3M) | GI50 (NCI-H23) | GI50 (NCI-H522) | GI50 (NCI/ADR-RES) | GI50 (PC-3) | GI50 (RXF 393) | GI50 (SK-MEL-5) | GI50 (SN12C) | GI50 (U-251) | GI50 (UACC-257) | GI50 (UACC-62) | GI50 (LOX IMVI) |
| --- | --- | --- | --- | --- | --- | --- | --- | --- | --- | --- | --- | --- | --- | --- | --- | --- | --- | --- | --- |
| O=C(O)c1cnc2cc(OCc3ccccc3)ccc2c1O | 18.5 µM (inactive) | 17.2 µM (inactive) | 20.7 µM (inactive) | 19.4 µM (inactive) | 18.5 µM (inactive) | 17 µM (inactive) | 31.2 µM (inactive) | 13.8 µM (inactive) | 17.9 µM (inactive) | 16.5 µM (inactive) | 18.1 µM (inactive) | 17.1 µM (inactive) | 18.3 µM (inactive) | 17.7 µM (inactive) | 18.2 µM (inactive) | 18.6 µM (inactive) | 24 µM (inactive) | 16.8 µM (inactive) | – |
| C=CC[C@H]1O[Si](C(C)(C)C)(C(C)(C)C)[C@H](C)[C@H]1C | 39.4 µM (inactive) | > 100 µM (inactive) | > 100 µM (inactive) | 24.3 µM (inactive) | > 100 µM (inactive) | > 100 µM (inactive) | > 100 µM (inactive) | 20.3 µM (inactive) | > 100 µM (inactive) | > 100 µM (inactive) | > 100 µM (inactive) | > 100 µM (inactive) | – | > 100 µM (inactive) | > 100 µM (inactive) | > 100 µM (inactive) | > 100 µM (inactive) | > 100 µM (inactive) | > 100 µM (inactive) |
| CN(O)C(=O)c1ccc(OCc2cccc(Cl)c2)cc1 | 8.51 µM (inactive) | 8.45 µM (inactive) | 16.7 µM (inactive) | 58.5 µM (inactive) | 27.5 µM (inactive) | 35.8 µM (inactive) | 9.64 µM (inactive) | – | 11.4 µM (inactive) | 13.1 µM (inactive) | 13.7 µM (inactive) | 24.5 µM (inactive) | 25.6 µM (inactive) | 27.8 µM (inactive) | 18 µM (inactive) | 15.2 µM (inactive) | 38.2 µM (inactive) | 15.4 µM (inactive) | 7.94 µM (inactive) |
| COc1cc([C@H]2OC[C@H]3[C@@H]2CO[C@@H]3c2cc(OC)c3c(c2)OCO3)cc(OC)c1OC | 39.1 µM (inactive) | 41.6 µM (inactive) and 70.3 µM (inactive) | 55.6 µM (inactive) | 46.9 µM (inactive) and 60.7 µM (inactive) | 50.5 µM (inactive) and 95.1 µM (inactive) | 65.2 µM (inactive) | 12.9 µM (inactive) and > 10 µM (inactive) | – | 37.4 µM (inactive) and 63 µM (inactive) | 32.7 µM (inactive) and 20.7 µM (inactive) | 23.4 µM (inactive) and 33.3 µM (inactive) | 46.1 µM (inactive) and 51.6 µM (inactive) | – | 19.2 µM (inactive) and 18.6 µM (inactive) | 96.8 µM (inactive) | 83 µM (inactive) and 57.9 µM (inactive) | 79.4 µM (inactive) and 50.2 µM (inactive) | 39.9 µM (inactive) and 67.3 µM (inactive) | 70.6 µM (inactive) and 96.8 µM (inactive) |
| C=C(O)c1ccccc1C#Cc1ccccc1C(=O)OC | > 10 µM (inactive) | > 10 µM (inactive) | > 10 µM (inactive) | – | > 10 µM (inactive) | > 10 µM (inactive) | > 10 µM (inactive) | > 10 µM (inactive) | > 10 µM (inactive) | > 10 µM (inactive) | > 10 µM (inactive) | > 10 µM (inactive) | > 10 µM (inactive) | > 10 µM (inactive) | > 10 µM (inactive) | > 10 µM (inactive) | > 10 µM (inactive) | > 10 µM (inactive) | > 10 µM (inactive) |
| S=C1SSC2N=CC=CC12 (stereo not drawn) | > 100 µM (inactive) | 92.9 µM (inactive) | – | 74.1 µM (inactive) | 17.3 µM (inactive) | > 100 µM (inactive) | 38.3 µM (inactive) | 56 µM (inactive) | > 100 µM (inactive) | 68.9 µM (inactive) | > 100 µM (inactive) | 63.4 µM (inactive) | 46.5 µM (inactive) | 43.3 µM (inactive) | > 100 µM (inactive) | > 100 µM (inactive) | > 100 µM (inactive) | 76.4 µM (inactive) | 31.3 µM (inactive) |
| COc1cc(C2S/C(=C/c3ccccc3)C(=O)N2c2cccc([N+](=O)[O-])c2)cc(OC)c1OC (stereo not drawn) | > 100 µM (inactive) | 36.2 µM (inactive) | > 100 µM (inactive) | 62.1 µM (inactive) | 28.8 µM (inactive) | 22.9 µM (inactive) | 70.3 µM (inactive) | > 100 µM (inactive) | > 100 µM (inactive) | 38.5 µM (inactive) | 42.2 µM (inactive) | > 100 µM (inactive) | – | 67.3 µM (inactive) | > 100 µM (inactive) | 27.5 µM (inactive) | > 100 µM (inactive) | 65.9 µM (inactive) | 40.8 µM (inactive) |
| COc1ccc(/C=C2\CCCC(CN(C)C)C2=O)cc1 (stereo not drawn) | 2.29 µM (inactive) | 1.63 µM (inactive) | 17.5 µM (inactive) | 4.35 µM (inactive) | 1.3 µM (inactive) | 2.96 µM (inactive) | 0.774 µM (active) | 2.53 µM (inactive) | 7.71 µM (inactive) | 1.37 µM (inactive) | 2.63 µM (inactive) | 5.74 µM (inactive) | – | 15.3 µM (inactive) | 2.56 µM (inactive) | 1.95 µM (inactive) | 3.26 µM (inactive) | 1.95 µM (inactive) | 1.34 µM (inactive) |
| CC(C)(C)c1cc(CC2C(=O)c3ccccc3C2=O)cc(C(C)(C)C)c1O | 9.51 µM (inactive) | 2.24 µM (inactive) | 2.54 µM (inactive) | 0.272 µM (active) | 3.51 µM (inactive) | 7.5 µM (inactive) | 2.5 µM (inactive) | – | 4.22 µM (inactive) | 2.62 µM (inactive) | 2.69 µM (inactive) | 2.7 µM (inactive) | – | 2.7 µM (inactive) | 4.11 µM (inactive) | 3.87 µM (inactive) | 3.21 µM (inactive) | 3.58 µM (inactive) | 3.81 µM (inactive) |
| CC(C)c1c(O)ccc2c1CCC1C(C)(C)CCCC21C (stereo not drawn) | 17.1 µM (inactive) | 17.2 µM (inactive) | – | 18.6 µM (inactive) | 20.5 µM (inactive) | 17.1 µM (inactive) | 19.1 µM (inactive) | 18.6 µM (inactive) | 17.3 µM (inactive) | 16.9 µM (inactive) | 16.9 µM (inactive) | 17.6 µM (inactive) | 15.1 µM (inactive) | 16.3 µM (inactive) | 14.5 µM (inactive) | 18 µM (inactive) | 17.7 µM (inactive) | 15.2 µM (inactive) | 17.1 µM (inactive) |
| C[N+](C)(N)Cc1csc(-c2ccc(Cl)cc2)n1 | > 100 µM (inactive) | > 100 µM (inactive) | 75.7 µM (inactive) | > 100 µM (inactive) | > 100 µM (inactive) | > 100 µM (inactive) | – | 39.4 µM (inactive) | > 100 µM (inactive) | 62.4 µM (inactive) | > 100 µM (inactive) | > 100 µM (inactive) | > 100 µM (inactive) | 61.5 µM (inactive) | 34.8 µM (inactive) | > 100 µM (inactive) | > 100 µM (inactive) | > 100 µM (inactive) | > 100 µM (inactive) |
| CC(C)(C)c1ccc2c(c1)OCc1n[nH]c(n1)COc1cc(C(C)(C)C)ccc1OCCOCCO2 | 4.39 µM (inactive) | 4.31 µM (inactive) | 5.62 µM (inactive) | 3.88 µM (inactive) | 3.85 µM (inactive) | 3.11 µM (inactive) | 3.67 µM (inactive) | 2.07 µM (inactive) | 3.09 µM (inactive) | 2.4 µM (inactive) | 3.41 µM (inactive) | 2.41 µM (inactive) | 1.62 µM (inactive) | 2.38 µM (inactive) | 4.55 µM (inactive) | 2.8 µM (inactive) | 2.65 µM (inactive) | 2.88 µM (inactive) | – |
| CCOC(=O)C(=[N+]=[N-])C(=O)CSC#N | 22.3 µM (inactive) | 33 µM (inactive) | > 100 µM (inactive) | – | > 100 µM (inactive) | 36 µM (inactive) | 39.2 µM (inactive) | 55 µM (inactive) | 84.7 µM (inactive) | 24.4 µM (inactive) | 96.4 µM (inactive) | > 100 µM (inactive) | > 100 µM (inactive) | 35.5 µM (inactive) | 25.6 µM (inactive) | 46.5 µM (inactive) | 71.4 µM (inactive) | 69.5 µM (inactive) | 21.7 µM (inactive) |
| CCOC(=O)C1(C/C=C\CBr)CCCCCCCCCCC1=O (stereo not drawn) | 15.6 µM (inactive) | 17 µM (inactive) | 18.2 µM (inactive) | – | 13.2 µM (inactive) | 11.9 µM (inactive) | 3.56 µM (inactive) | 8.22 µM (inactive) | 11.9 µM (inactive) | 0.497 µM (active) | 16.7 µM (inactive) | 10.4 µM (inactive) | 11.2 µM (inactive) | 12.8 µM (inactive) | 12.6 µM (inactive) | 7.01 µM (inactive) | 15.2 µM (inactive) | 11.5 µM (inactive) | 0.428 µM (active) |
| c1ccc2c3c([nH]c2c1)C1c2[nH]c4ccccc4c2CCN1CC3 | 13.8 µM (inactive) | 10.2 µM (inactive) | 13.6 µM (inactive) | 2.03 µM (inactive) | 12.5 µM (inactive) | 18.1 µM (inactive) | 7.59 µM (inactive) | 15.1 µM (inactive) | 12.3 µM (inactive) | 11.6 µM (inactive) | 2.27 µM (inactive) | 12.9 µM (inactive) | 13.6 µM (inactive) | 13.6 µM (inactive) | 15.2 µM (inactive) | – | 14.5 µM (inactive) | 16.7 µM (inactive) | 11.6 µM (inactive) |
